# Test results reported in article PMC10432207 (Heliyon, 2023).
# Target: Hyalomma scupense acetylcholinesterase (AChE)
# Experiment: Ellman assay, absorbance at […] nm
# Assay type: biochemical
# Conditions: acetylthiocholine iodide, DTNB, 10 min, 37 °C
SMILES,IC50 [µg/mL],IC50 (positive control) [µg/mL]
C=CCc1ccc(O)c(OC)c1 [eugenol],178,
COc1ccc2c3c1O[C@H]1C[C@@H](O)C=C[C@@]31CCN(C)C2 [galantamine],,97
